These results are taken from US5482954A, “Signal transduction inhibitor triazole and diazole compounds” (priority 1994, dated 1996).

Values joined by “and” are separate entries in the source; they are usually repeats but may differ in a detail not shown here. Equal values may be shown once. Read-outs that look alike come from different tables or passages of the source.

Series [1] concerns signal transduction and tumor growth. Briefly: Biological and biochemical assays, summary. Format: cell-based. The settings on record: summary of all assays. An excerpt:
Compound 1 was inhibitory for the biological and biochemical assays.

The nature of series [2]: Plasma levels in patients of phase I clinical study. Format: in vivo. The following applies: human, po. From the text:
Seven patients with solid tumor metastasis are undergoing treatment via oral administration of compound 1 under the FDA approved phase I clinical study. Table J provides data on the patients' response to this treatment. PT# is patient number. Response is the sum of the products of bidirectional measurements. No measurement means that while the disease was evaluable, it was not measureable. The concentration of the drug in the blood of the patients is well within the range which inhibits signal transduction in vitro and which inhibits tumor growth in vitro and in animals.
The concentration of compound 1 in the blood of patient #1 was from 1-2 μg/mL, while that of the other three patients was >3 μg/mL (>7 μM). These concentrations are well within the range which inhibit signal transduction in vitro and which inhibit tumor growth in animals.

Series [3] relates to A2058 cells. Briefly: Proliferation of A2058 cells (monolayer growth, crystal violet). Format: cell-based, human. As for the experimental part:
(§1) For the clonogenic assay, aliquots of 50,000 cells per well (24 well plates) were grown under standard tissue culture conditions in the presence of increasing doses or test compound (0-10 μg/mL) or vehicle control. After 96 hr, the cells were gently washed with PBS, fixed, and stained with 0.5% crystal violet nuclear stain in 20% methanol. Excess stain was removed with tap water and bound stain was eluted with an equal volume solution of 01N sodium citrate (pH 4.2) and absolute ethanol. Optical density (O.D.) of eluted crystal violet stain was determined at 540 nm. The results of dose-dependent inhibition of tumor cell proliferation by compound 1 are shown in FIG. 5, in which the data are expressed as percent of untreated control cell proliferation for each cell type. The degree of inhibition varied with the cell type and was maximal (76%) for the A2058 cell line.
A2058 human melanoma cells were used to test the effect of compounds 1 and 3-25 on cellular proliferation. The cells were cultured in the presence of the test compounds (10 μM) for 96 hr. fixed and stained with crystal violet as described above. Growth inhibition was determined as a percent of control growth (using either DMSO or PEG-400 as the vehicle) for each compound. Each experiment was run a minimum of three times and the average of the results for each compound is provided in Table H and in FIGS. 20A and 20B.

Series [4] is described as follows: Plasma levels in mice (HPLC). Format: in vivo, nude mice. The following applies: oral. The protocol:
Murine data: A cohort of nude mice were inoculated with A2058 cells and treated with compound 1 at rates of 100 mg/kg/d and 250 mg/kg/qod. These animals were sacrificed humanely at 4 day intervals beginning 18 hr after oral administration of 1. Plasma was collected and frozen until evaluation by HPLC. Plasma samples were precipitated with 10% trichloroacetic acid and extracted with methylene chloride. The organic extract was evaporated to dryness under a stream of nitrogen, reconstituted and chromatographed by HPLC using an isocratic elution of 70% methanol in 0.1 M ammonium acetate (pH 6.5) on a C-18 analytical column. The lower level of sensitivity of this method is 20 ng/mL. The levels of compound 1 in plasma ranged from 1-5 μg/mL in the 100 mg/kg/d cohort and from 5-10 μg/mL in the 250 mg/kg/qod group. These plasma levels are in the range determined to be biologically significant in the inhibition of signal transduction.

The subject of series [5] is A2058 cells. Briefly: [3H]thymidine incorporation. Format: cell-based, human. The settings on record: 0-10 μg/mL, 24 hr. As for the experimental part: (§2) Proliferation: Two independent methods were used to determine the effect of various compounds on cellular proliferation. The first method utilized [^3 H]thymidine labelling and was performed using A2058, 5R, OVCAR3, and MDA-231 cells. Because the potential effect of compound 1 on thymidine metabolism was unknown, a clonogenic assay was also used. This assay utilized crystal violet nuclear staining.
(§3) For the thymidine incorporation assay, an initial aliquot of 15,000 cells was plated in 96 well plates. The cells were grown to subconfluence, serum-starved, then fed with serum-containing media to which incremental doses of compound 1 (0-10 μg/mL) were added. After 24 hr, the cells were pulsed with [^3 H]thymidine (0.5 μCi/well) for 2 hr. Trichloroacetic acid was added to precipitate […] [^3 H]thymidine. After removal, ice cold ethanol/diethyl ether was added to precipitate cellular nucleic acids. The residue was solubilized with 0.2M NaOH and [^3 H]thymidine incorporation was determined by liquid scintillation counting. Inhibition of thymidine uptake was calculated as a percent of untreated control cell incorporation of labelled thymidine. As FIG. 4 indicates, de novo DNA synthesis was inhibited in all of the tumor cell lines. Maximal inhibition (80%) was found with the 5R cells.

Series [6] concerns OVCAR3 cells. The series is described as follows: [3H]thymidine incorporation. The settings on record: 0-10 μg/mL, 24 hr. In kind it is cell-based, human. As for the experimental part: as §2, §3
A general note: Uptake of a labelled nucleoside into DNA is a usual measure of proliferation.

For series [7], the system named is MDA-231 cells. The series is described as follows: [3H]thymidine incorporation. Format: cell-based, human. The settings on record: 0-10 μg/mL, 24 hr. As for the experimental part: as §2, §3
Series [8] deals with A2058 cells. Briefly: Clonogenic (crystal violet) proliferation assay. Format: cell-based, human. The settings on record: 0-10 μg/mL, 96 hr. The protocol: as §2, §1
In series [9] the test system is OVCAR3 cells. The series is described as follows: Clonogenic (crystal violet) proliferation assay. Format: cell-based, human. The following applies: 0-10 μg/mL, 96 hr. The protocol: as §2, §1
The test system of series [10] is MDA-231 cells. Briefly: Clonogenic (crystal violet) proliferation assay. In kind it is cell-based, human. The following applies: 0-10 μg/mL, 96 hr. The protocol: as §2, §1
Series [11] has as its system L-type voltage gated calcium channels. The settings on record: Hupe, et al.; cited from earlier work.
Series [12] relates to OVCAR3 cells. The series is described as follows: Colony formation (soft agar). Format: cell-based. The following applies: Homo sapiens, OVCAR-3. The protocol: Colony formation: Compound 1 was evaluated at three concentrations for inhibition of colony formation in both the A2058 and OVCAR3 cell lines. Colony number was determined in triplicate and compared to the vehicle control run on each 24 well plate to provide a percent. Colonies greater than 60 cells were counted at 100× under phase contrast. […] In a second study, selected compounds were evaluated for their effect on density-independent growth of the A2058 cell line in soft agar. Percent inhibition was determined over triplicate experiments involving three log molar concentrations of the test compound.

In the case of `NC(=O)c1nnn(Cc2cc(Cl)c(C(=O)c3ccc(Cl)cc3)c(Cl)c2)c1N` [Compound 1], the “inhibition in the biological and biochemical assays” value in [1] is “inhibitory”. The Cmax in series [2] (100 mg/m^2, patient 1, melanoma, 100 mg/m^2 qod, oral, read-out: PEAK LEVEL) is 1250 ng/mL; in series [2] (100 mg/m^2, patient 2, colon, 100 mg/m^2 qd, oral, read-out: PEAK LEVEL), 3610 ng/mL; in [2] (100 mg/m^2, patient 3, colon, 100 mg/m^2 qd, oral, read-out: PEAK LEVEL) it was 3530 ng/mL; in series [2] (100 mg/m^2, patient 4, ovary, 100 mg/m^2 qd, oral, read-out: PEAK LEVEL), 3080 ng/mL; in series [2] (200 mg/m^2, patient 5, lung, 200 mg/m^2 qod, oral, read-out: PEAK LEVEL), 1770 ng/mL; in series [2] (200 mg/m^2, patient 6, carcinoid, 200 mg/m^2 qod, oral, read-out: PEAK LEVEL), 1340 ng/mL. In addition, the Cmax in series [2] (200 mg/m^2, patient 7, colon, 200 mg/m^2 qod, oral, read-out: PEAK LEVEL) is 2830 ng/mL; in series [2] (other three patients of FIG. 19, read-out: concentration in the blood (peak/steady state)), > 3000 ng/mL and > 7 µM; in series [2] (patient #1, read-out: concentration in the blood (peak/steady state)), 1000 to 2000 ng/mL. Besides, in the series with A2058 cells [3] (FIG. 20A, monolayer growth), the “dose dependent inhibition of proliferation” value was “Dose dependent inhibition of proliferation”. Moreover, the activity at 10 µM in the series on A2058 cells [3] (Homo sapiens, A2058, Table H, 10 μM, 96 hr, read-out: GROWTH (% OF CONTROL)) was determined as 36.4 ± 6%. Moreover, the level in plasma in series [4] (100 mg/kg/d) lay in the range of 1000 to 5000 ng/mL; in series [4] (250 mg/kg/qod), 5000 to 10000 ng/mL. The “inhibition of de novo DNA synthesis” value with A2058 cells [5], in the series on OVCAR3 cells [6] and with MDA-231 cells [7] was “inhibited” in each case. In the series with A2058 cells [8], the “maximal inhibition of tumor cell proliferation” value was 76%. Also, the “inhibition of tumor cell proliferation” value in the series with OVCAR3 cells [9] and in the series on MDA-231 cells [10] was “dose dependent inhibition of tumor cell proliferation” throughout. Moreover, in series [11], the “inhibition of L-type voltage gated calcium channels” value is “inhibit”. In the series on OVCAR3 cells [12], this compound had an inhibition at 2 µM of more than 70%.

As a reminder, the inhibition is the change of the read-out against control, counted positive when it falls. Read a low inhibition as a response near the control.
